How the values were obtained:
Type in all cases: in vivo
C57BL mice [1] = assay: Voluntary alcohol consumption in alcohol naive mice (two-bottle choice); conditions: for % ETHANOL PREFERENCE (mean ± SEM): 7 days
Protocol: Forty adult male C57BL mice were obtained from Jackson Laboratories and housed individually in light controlled rooms for a period of at least ten days after arrival with free access to Purina Chow and water. The lights were cycled on and off every twelve hour period. Mice were divided into four groups of ten. Each room was fitted with two 250 ml bottles having drip proof drinking spouts on both sides of a food bin containing Purina Chow. One bottle contained 6% (V/V) ethanol in water whereas the other bottle contained water. […] The two bottles were frequently exchanged with each other to minimize positional preference. Fluid intake from each bottle was recorded after 7 days.
Ethanol preference was calculated as ethanol intake/(ethanol intake+water intake)×100.

C57BL mice [2] = assay: Voluntary alcohol consumption in alcohol experienced mice (two-bottle choice); conditions: for ETHANOL PREFERENCE (%): 7 days
Protocol: Forty adult male C57BL mice were obtained from Jackson Laboratories and housed individually in light controlled rooms for a period of at least ten days prior to beginning the experiment with free access to Purina Chow and water. The lights were cycled on and off every twelve hour period. The mice were divided into four groups of ten. Each room was fitted with two 250 ml bottles having drip proof drinking spouts on both sides of a food bin containing Purina Chow. Both bottles contained 6% (V/V) ethanol in water and were the only source of fluid available. Mice were allowed to drink for seven days. On the eighth day, one bottle containing ethanol in water was removed and replaced with a 250 ml bottle containing water. […] The bottles were frequently exchanged to discourage positional preference. Fluid intake from each bottle was recorded after an additional 7 days. % Ethanol preference was calculated for each group.

Sprague-Dawley rats = assay: Effect of intraperitoneal and oral administration of CHP on food intake; conditions: for food intake, mean ± SEM, n = 6: 7 h after 21 h fast; for effect on food consumption: up to 50 mg/Kg of body weight
Protocol: Thirty-six outbred adult male Sprague-Dawley rats, certified virus free, obtained from Hilltop Laboratories, New York, N.Y. were housed in a temperature and light controlled room for a period of at least seven days after arrival. Sprague-Dawley rats are white albino outbred rats. The temperature of the room was maintained at about 20-21° C. The lights in the room were cycled between on and off every twelve hours. The rats were allowed free access to Purina Chow food and water prior to beginning the experiment. For the experiment rats were divided into six groups of six rats each. […] The amount of CHP in each dose was based on the body weight of the individual rat. Rats were fasted for about 21 hours from food but not water. Oral dosages of CHP were administered using a gavage tube according to each rat group. The rats were then given access to Purina Chow and water for the next seven hours. Food intake during the seven hours was measured in grams per rat and averaged for each group. […] At the end of this period, the experiment was repeated using intraperitoneal administration.

[3] = CHP 1 μg/ml fluid in each bottle
[4] = CHP 5 μg/ml fluid in each bottle
[5] = CHP 10 μg/ml fluid in each bottle

Histidyl-proline diketopiperazine [CHP]
effect on average daily fluid intake (C57BL mice [1]; ANOVA: F=0.09, p=0.96): did not effect | alcohol preference after CHP administration (C57BL mice [1]; ANOVA: F=3.73, p=0.019): dose dependence decrease | AVERAGE FLUID INTAKE (C57BL mice [1]; [3]): 2.9 mL/day | % ETHANOL PREFERENCE (mean ± SEM) (C57BL mice [1]; [3]): 29 ± 6% | AVERAGE FLUID INTAKE (C57BL mice [1]; [4]): 2.8 mL/day | % ETHANOL PREFERENCE (mean ± SEM) (C57BL mice [1]; [4]): 23 ± 6% | AVERAGE FLUID INTAKE (C57BL mice [1]; [5]): 2.7 mL/day | % ETHANOL PREFERENCE (mean ± SEM) (C57BL mice [1]; [5]): 15% | alcohol preference after CHP administration (C57BL mice [2]; ANOVA: F=3.88, p=0.0195): dose dependence decrease | ETHANOL PREFERENCE (%) (C57BL mice [2]; [3]): 58% | ETHANOL PREFERENCE (%) (C57BL mice [2]; [4]): 54% | ETHANOL PREFERENCE (%) (C57BL mice [2]; [5]): 40% | food intake, mean ± SEM, n = 6 (Sprague-Dawley rats; intraperitoneal, 1 mg/kg of body weight): 17.6 ± 3.6 g/rat | food intake, mean ± SEM, n = 6 (Sprague-Dawley rats; intraperitoneal, 5 mg/kg of body weight): 14.2 ± 0.7 g/rat | food intake, mean ± SEM, n = 6 (Sprague-Dawley rats; intraperitoneal, 10 mg/kg of body weight): 14.1 ± 2.9 g/rat | food intake, mean ± SEM, n = 6 (Sprague-Dawley rats; intraperitoneal, 20 mg/kg of body weight): 14.4 ± 1.0 g/rat | food intake, mean ± SEM, n = 6 (Sprague-Dawley rats; intraperitoneal, 50 mg/kg of body weight): 14.7 ± 1.2 g/rat | effect on food consumption (Sprague-Dawley rats; intraperitoneal, ANOVA F=1.86, p=0.13): no significant effect | food intake, mean ± SEM, n = 6 (Sprague-Dawley rats; oral, 1 mg/kg of body weight): 14.3 ± 2.2 g/rat | food intake, mean ± SEM, n = 6 (Sprague-Dawley rats; oral, 5 mg/kg of body weight): 14.7 ± 1.2 g/rat | food intake, mean ± SEM, n = 6 (Sprague-Dawley rats; oral, 10 mg/kg of body weight): 13.1 ± 2.1 g/rat | food intake, mean ± SEM, n = 6 (Sprague-Dawley rats; oral, 20 mg/kg of body weight): 15.1 ± 2.3 g/rat | food intake, mean ± SEM, n = 6 (Sprague-Dawley rats; oral, 50 mg/kg of body weight): 15.7 ± 1.7 g/rat | effect on food consumption (Sprague-Dawley rats; oral, ANOVA F=0.92): no significant effect

— patent publication US6090780A (Chandon Prasad, priority 1999, dated 2000)
